From ChEMBL document CHEMBL1157646, “Melanogenesis inhibitors from the desert plant Anastatica hierochuntica in B16 melanoma cells” (Bioorg Med Chem, 2010)
Activity calls are given as the source filed them. The rule behind the calls is not given here.

Experiments:
[1] = Toxicity in mouse B16-4A5 cells assessed as inhibition of cell proliferation at 30 uM in presence of 1 mM theophylline after 72 hrs by WST8 dye reduction assay; format: cell-based
[2] = molecular target: T1, Tyrosinase (Agaricus bisporus) (UniProt O42713); test: Inhibition of mushroom tyrosinase assessed as inhibition of melanin production from dopachrome by autoxidation at 100 uM
T1 sequence (whole entry): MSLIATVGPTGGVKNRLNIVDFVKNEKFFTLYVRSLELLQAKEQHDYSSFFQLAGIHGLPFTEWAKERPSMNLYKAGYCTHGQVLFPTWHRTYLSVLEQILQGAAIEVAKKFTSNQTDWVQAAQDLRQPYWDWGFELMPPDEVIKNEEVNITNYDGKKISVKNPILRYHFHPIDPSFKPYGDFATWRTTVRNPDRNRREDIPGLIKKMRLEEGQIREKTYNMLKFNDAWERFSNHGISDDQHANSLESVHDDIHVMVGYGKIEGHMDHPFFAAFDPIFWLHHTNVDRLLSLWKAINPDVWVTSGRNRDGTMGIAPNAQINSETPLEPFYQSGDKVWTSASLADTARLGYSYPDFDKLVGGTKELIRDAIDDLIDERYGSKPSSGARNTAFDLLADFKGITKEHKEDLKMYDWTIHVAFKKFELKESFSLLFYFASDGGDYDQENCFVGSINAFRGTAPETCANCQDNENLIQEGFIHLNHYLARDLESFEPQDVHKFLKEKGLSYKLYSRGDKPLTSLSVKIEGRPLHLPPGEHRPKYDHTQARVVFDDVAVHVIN

cells [3] = conditions: Mus musculus, B16-4A5, 72 h, read-out: INH
Description: Inhibition of theophylline-stimulated melanogenesis in mouse B16-4A5 cells at 30 uM after 72 hrs

cells [4] = conditions: Mus musculus, B16-4A5, 72 h, read-out: INH; remark: listed apart in the source
Description: Inhibition of theophylline-stimulated melanogenesis in mouse B16-4A5 cells at 10 uM after 72 hrs

cells [5] = conditions: Mus musculus, B16-4A5, 72 h, read-out: INH; remark: listed apart in the source
Description: Inhibition of theophylline-stimulated melanogenesis in mouse B16-4A5 cells at 3 uM after 72 hrs

cells [6] = conditions: Mus musculus, B16-4A5, 72 h, read-out: INH; remark: listed apart in the source
Description: Inhibition of theophylline-stimulated melanogenesis in mouse B16-4A5 cells at 1 uM after 72 hrs

[7] = molecular target: T1, Tyrosinase (Agaricus bisporus); test: Inhibition of mushroom tyrosinase at 1 uM
[8] = molecular target: T1, Tyrosinase (Agaricus bisporus); test: Inhibition of mushroom tyrosinase at 3 uM
[9] = Toxicity in mouse B16-4A5 cells assessed as inhibition of cell proliferation at 1 uM in presence of 1 mM theophylline after 72 hrs by WST8 dye reduction assay; format: cell-based
[10] = Toxicity in mouse B16-4A5 cells assessed as inhibition of cell proliferation at 3 uM in presence of 1 mM theophylline after 72 hrs by WST8 dye reduction assay; format: cell-based
[11] = Toxicity in mouse B16-4A5 cells assessed as inhibition of cell proliferation at 10 uM in presence of 1 mM theophylline after 72 hrs by WST8 dye reduction assay; format: cell-based
[12] = Toxicity in mouse B16-4A5 cells assessed as inhibition of cell proliferation in presence of 1 mM theophylline after 72 hrs by WST8 dye reduction assay; format: cell-based

Row | SMILES | inhibition at 72 h, 30 µM [1] [%] | inhibition [2] | inhibition at 30 µM (cells [3]) [%] | inhibition at 10 µM (cells [4]) [%] | inhibition at 3 µM (cells [5]) [%] | inhibition at 1 µM (cells [6]) [%] | inhibition [7] [%] | inhibition [8] [%] | inhibition at 72 h, 1 µM [9] [%] | inhibition at 72 h, 3 µM [10] [%] | inhibition at 72 h, 10 µM [11] [%] | IC50 at 72 h [12] [µM]
1 | COc1ccc([C@@H]2Oc3c(O)cc(/C=C/C=O)cc3[C@H]2CO)cc1OC | < 8.8 | inactive | 76.8 | 33.6 | 8.4 | 10.7 |  |  |  |  |  | 
2 | COc1ccc(C(=O)O)cc1 [p-ANISIC ACID] | < 8.8 |  | < 15.4 |  |  |  |  |  |  |  |  | 
3 | O=C(O)c1ccc(O)c(O)c1 [PROTOCATECHUIC ACID] | < 8.8 |  | < 15.4 |  |  |  |  |  |  |  |  | 
4 | COc1cc([C@H](O)[C@@H](CO)c2ccc(O)c(OC)c2)ccc1O (relative stereo) | < 8.8 |  | < 15.4 |  |  |  |  |  |  |  |  | 
5 | O=C1C[C@@H](c2ccc(O)cc2)Oc2c1c(O)cc1oc3cc(O)c(O)cc3c21 [ANASTATIN B] | < 8.8 |  | 40.3 | 19.5 | 10.1 | -1.1 |  |  |  |  |  | 
6 | O=C1C[C@@H](c2ccc(O)cc2)Oc2cc3oc4cc(O)c(O)cc4c3c(O)c21 [ANASTATIN A] | < 8.8 | inactive | 65.1 | 35.9 | 14.9 | 7.1 | 6.4 | 6.7 |  |  |  | 
7 | O=Cc1ccc(O)c(O)c1 [PROTOCATECHUALDEHYDE] | 11.4 | inactive | 57.9 | 40.4 | 13.8 | 8.5 | 3.1 | 2.3 | -4.7 | -4.7 | -3.7 | 
8 | COc1cc(C(=O)[C@H](CO)c2ccc(O)c(OC)c2)ccc1O [(-)-EVOFOLIN B] | < 8.8 |  | 23.5 | 16.4 | 15 | 18.2 |  |  |  |  |  | 
9 | COc1cc(C(C)=O)ccc1O [APOCYNIN] | < 8.8 |  | 20.2 | 18.9 | 17.5 | 16.8 |  |  |  |  |  | 
10 | COc1cc([C@@H]2Oc3c(O)cc(C=O)cc3[C@H]2CO)ccc1O [HIEROCHIN C] | < 8.8 |  | 44.6 | 27.6 | 6.6 | -1 |  |  |  |  |  | 
11 | O=C1c2c(O)cc(O)cc2O[C@H](c2ccc(O)c(O)c2)[C@H]1O [(+)-TAXIFOLIN] | < 8.8 |  | 21.7 | 6.7 | 3.1 | 3.5 |  |  |  |  |  | 
12 | COc1cc(C=O)ccc1O [VANILLIN] | < 8.8 |  | < 15.4 |  |  |  |  |  |  |  |  | 
13 | COc1cc(C(O)C(CO)Oc2ccc(/C=C/CO)cc2OC)ccc1O (centres undefined) | < 8.8 | inactive | 52.9 | 24.5 | 11.7 | 8.8 |  |  |  |  |  | 
14 | C[C@@H]1O[C@@H](OC[C@H]2O[C@@H](Oc3c(-c4ccc(O)c(O)c4)oc4cc(O)cc(O)c4c3=O)[C@H](O)[C@@H](O)[C@@H]2O)[C@H](O)[C@H](O)[C@H]1O [RUTIN] | < 8.8 |  | 5.2 | 4.3 | 3.1 | 4.5 |  |  |  |  |  | 
15 | O=Cc1ccc(O)cc1 [4-HYDROXYBENZALDEHYDE] | 17.6 |  | < 15.4 |  |  |  |  |  | -8.4 | -13.6 | -21 | 
16 | O=C1c2c(O)cc(O)cc2O[C@H](c2ccc(O)cc2)[C@H]1O [DIHYDROKAEMPFEROL] | < 8.8 |  | 7 | -5.2 | 14.4 | 6 |  |  |  |  |  | 
17 | COc1cc(/C=C/C(=O)O)ccc1O [FERULATE] | < 8.8 |  | < 15.4 |  |  |  |  |  |  |  |  | 
18 | COc1ccc([C@H]2Oc3c(OC)cc(/C=C/CO)cc3[C@@H]2CO)cc1OC [Hierochin B] | 23.8 |  | 50.6 | 7.6 | 2.2 | -1.6 |  |  | 0.3 | 1.3 | 10.9 | > 100

Row | SMILES | inhibition at 72 h, 30 µM [1] [%] | inhibition [2] | inhibition at 30 µM (cells [3]) [%] | inhibition at 10 µM (cells [4]) [%] | inhibition at 3 µM (cells [5]) [%] | inhibition at 1 µM (cells [6]) [%] | inhibition [7] [%] | inhibition [8] [%] | inhibition at 72 h, 1 µM [9] [%] | inhibition at 72 h, 3 µM [10] [%] | inhibition at 72 h, 10 µM [11] [%] | IC50 at 72 h [12] [µM]
19 | COc1cc([C@H]2Oc3cc(O)cc(O)c3C(=O)[C@@H]2O)ccc1O | < 8.8 |  | 16.2 | 10.6 | 8 | 9.8 |  |  |  |  |  | 
20 | COc1cc([C@@H](O)[C@@H](CO)c2ccc(O)c(OC)c2)ccc1O (relative stereo) | < 8.8 |  | 27.3 | 21.3 | 20.8 | 14.9 |  |  |  |  |  | 
21 | COC/C=C/c1cc(O)c2c(c1)[C@@H](CO)[C@H](c1ccc(O)c(OC)c1)O2 [HIEROCHIN A] | < 8.8 | inactive | 51.8 | 32.5 | 8 | 1.9 |  |  |  |  |  | 
22 | COc1cc([C@@H]2Oc3c(O)cc([C@H]4Oc5cc(O)cc(O)c5C(=O)[C@@H]4O)cc3[C@H]2CO)ccc1O [SILICRISTIN A] | < 8.8 |  | 17.4 | 3.8 | 1.3 | 4.1 |  |  |  |  |  | 
23 | O=C(O)c1ccc(O)cc1 [PARABEN] | < 8.8 |  | < 15.4 |  |  |  |  |  |  |  |  | 
24 | O=C1C[C@@H](c2ccc(O)cc2)Oc2cc(O)cc(O)c21 [NARINGENIN] | < 8.8 |  | 16.9 | 22.5 | 13.9 | 14.4 |  |  |  |  |  | 
25 | COc1cc([C@H]2Oc3c(O)cc([C@H]4Oc5cc(O)cc(O)c5C(=O)[C@@H]4O)cc3[C@@H]2CO)ccc1O [SILICRISTIN B] | < 8.8 |  | 1.2 | 1.6 | -1.3 | 4.2 |  |  |  |  |  | 
26 | O=C1c2c(O)cc(O)cc2O[C@@H](c2ccc(O)c(O)c2)[C@H]1O [(+)-EPITAXIFOLIN] | < 8.8 |  | 13.7 | 6.9 | 6.8 | 3.5 |  |  |  |  |  | 
27 | COc1cc([C@H]2Oc3c(OC)cc(/C=C/C=O)cc3[C@@H]2CO)ccc1O | 40.3 | inactive | 79.1 | 28.4 | 2.1 | -2.8 |  |  | 3.8 | 5.5 | 13.6 | > 100
28 | COc1cc(C(=O)C(O)CO)ccc1O (single isomer, unassigned; (+)) | < 8.8 |  | 25.8 | 24 | 18.1 | 16.5 |  |  |  |  |  | 
29 | COc1cc(C(O)C(CO)Oc2ccc(/C=C/C=O)cc2OC)ccc1O (centres undefined) | 91.5 |  |  | < 15.4 |  |  |  |  | 2.2 | 13.6 | 68.6 | 6.9
30 | COc1cc(C(=O)CO)ccc1O | < 8.8 |  | < 15.4 |  |  |  |  |  |  |  |  | 
31 | O=c1c(O)c(-c2ccc(O)cc2)oc2cc(O)cc(O)c12 [KAEMPFEROL] | 16.3 | inactive | 58.1 | 18.6 | 7.9 | -0.6 |  |  | 3 | 10.2 | 13 | 
32 | COc1cc([C@H]2Oc3c(OC)cc(/C=C/CO)cc3[C@@H]2CO)ccc1O | 23.3 | inactive | 72.7 | 18.6 | -5.4 | -1.6 |  |  | -2.7 | 0.3 | -1.6 | > 100
33 | COc1cc(C(=O)CCO)ccc1O | < 8.8 |  | < 15.4 |  |  |  |  |  |  |  |  | 
34 | COc1cc(/C=C/C=O)ccc1O [CONIFERYL ALDEHYDE] | 11.5 |  | 39.1 | 14 | 11.6 | 10.3 | 1.6 | 4.2 | -4.2 | -3.2 | -0.5 | 
35 | COc1cc(C[C@H]2CO[C@H](c3ccc(O)c(OC)c3)[C@H]2CO)ccc1O [LARICIRESINOL] | < 8.8 |  | < 15.4 |  |  |  |  |  |  |  |  | 
